The numbers were not newly measured in patent US10272040B2, “Liposomal formulation for ocular drug delivery” (Nanyang Technological University, priority 2010, dated 2019), which cites them from elsewhere.

The conditions of data set [1]: other drugs in liposomes.
The conditions of data set [2]: SRC PhysProp Database.

Consider `N.N.[Cl][Pt][Cl]` [cisplatin], for which the “Drug:Lipid mole ratio, Literature” value in data set [1] is reported as 0.05. The log P is the decadic logarithm of the partition coefficient of the neutral form, usually between octanol and water. For `CC(C)OC(=O)CCC/C=C\C[C@@H]1[C@@H](CC[C@@H](O)CCc2ccccc2)[C@H](O)C[C@@H]1O` [latanoprost], in data set [2], the “log P” value was 4.4.
